The text below walks through data of patent publication US20090264289A1, “Use of Arylcarboxylic Acid Biphenylamides for Seed Treatment” (BASF SE, priority 2006, published 2009).

What all share (assay type): in vivo
For experiment [1], the system named is Puccinia recondita. Nature of the experiment: Activity against Puccinia recondita on wheat (seed treatment). As to conditions: 250 g a.i./100 kg seeds, inoculated 14 days after sowing, 7 days incubation, control 90. As for the experimental part: Activity Against Puccinia recondita on Wheat (Seed Treatment) 24 mg of the active compounds listed in table 2 were in each case dissolved in 1 ml of acetone to give a stock solution. The stock solution was diluted with acetone to give the test solution. Aliquots of 4.8 g of wheat seeds were placed in glass vials, where they were treated in an air stream with 1 ml of the test solution containing the active compound. In each case, 10 grains were sown in pots of 8 cm diameter. Untreated grains served as control. […] After 7 days of incubation, the extent of infection was determined visually in %. The concentration is given in g of active compound (g a.i.) per 100 kg of seeds.

The subject of experiment [2] is Phakopsora pachyrhizi. Nature of the experiment: Activity against Phakopsora pachyrhizi on soybean (seed treatment). As to conditions: inoculated 14 days after sowing, 10 days incubation, control 87. The method, then: Activity Against Phakopsora pachyrhizi on soybean (Seed Treatment)
16 mg of the active compounds listed in table 3 were in each case dissolved in 1 ml of acetone to give a stock solution. The stock solution was diluted with acetone to give the test solution. Aliquots of 1.5 g of soybean seeds were placed in glass vials, where they were treated in an air stream with 0.6 ml of the test solution containing the active compound. In each case, 8 grains were sown in pots of 8 cm diameter. Untreated grains served as control. 14 days after sowing, the soybean plants were inoculated with a spore suspension of Phakopsora pachyrhizi. After 10 days of incubation, the extent of infection was determined visually in %. The concentration is given in g of active compound (g a.i.) per 100 kg of seeds.

The subject of experiment [3] is Puccinia recondita. Nature of the experiment: Activity against Puccinia recondita on wheat (solution pipetted to seedlings in vermiculite). The following applies: inoculated 7 days after treatment, 7 days incubation, control 80. As for the experimental part:
(§1) Activity Against Puccinia recondita on Wheat The active compounds were formulated as a stock solution in acetone at a concentration of 10 000 ppm. The stock solution was diluted with water to the stated active compound concentration. 1 ml of the respective solution was pipetted to wheat seedlings grown in vermiculite (10 to 12 seedlings per pot). 7 days after the treatment the wheat plants were inoculated with a spore suspension of Puccinia recondita. After 7 days of incubation, the extent of infection was determined visually in %. The concentration is given in g of active compound (g a.i.) per 100 kg of seeds.

A further experiment deals with Erysiphe graminis. Put plainly: Activity against Erysiphe graminis on wheat (solution pipetted to seedlings in vermiculite). As to conditions: inoculated 7 days after treatment, 7 days incubation, control 80. As for the experimental part:
as §1, with “Erysiphe graminis” for “Puccinia recondita”, “Erysiphe graminis.” for “Puccinia recondita.”

Experiment [4] has as its system Septoria tritici. Put plainly: Activity against Septoria tritici on wheat (seed treatment). The following applies: inoculated 14 days after sowing, 24 days incubation, control 85. The method, then: Activity Against Septoria tritici on Wheat (Seed Treatment) 9.6 mg of the active compound Ia.90 was dissolved in 1 ml of acetone to give a stock solution. The stock solution was diluted with acetone to give the test solution. Aliquots of 4.8 g of wheat seeds were placed in glass vials, where they were treated in an air stream with 0.5 ml of the test solution containing the active compound. In each case, 10 grains were sown in pots of 8 cm diameter. Untreated grains served as control. 14 days after sowing, the wheat plants were inoculated with a spore suspension of Septoria tritici. After 24 days of incubation, the extent of infection was determined visually in %. The concentration is given in g of active compound (g a.i.) per 100 kg of seeds.

Experiment [5] has as its system Phakopsora pachyrhizi. Put plainly: Activity against Phakopsora pachyrhizi on soybean (solution pipetted to seedlings in vermiculite). As to conditions: 250 g a.i./100 kg, inoculated 7 days after treatment, 14 days incubation, control 88. The method, then: Activity Against Phakopsora pachyrhizi on Soybean
The active compounds were formulated as a stock solution in dimethylsulfoxide at a concentration of 10 000 ppm. The stock solution was diluted with water to the stated active compound concentration. 1 ml of the respective solution was pipetted to soybean seedlings grown in vermiculite (1 seedling per pot). 7 days after the treatment the soybean plants were inoculated with a spore suspension of Phakopsora pachyrhizi. After 14 days of incubation, the extent of infection was determined visually in %. The concentration is given in g of active compound (g a.i.) per 100 kg of seeds.

Experiment [6] relates to Septoria tritici. Nature of the experiment: Activity against Septoria tritici on wheat (seedlings treated, detached leaf portions on agar inoculated). As to conditions: wheat seedlings in vermiculite, leaf portions on agar inoculated 7 days after treatment, 18° C., 18 days incubation, control 100. As for the experimental part: Activity Against Septoria tritici on Wheat The active compound Ia.1 was formulated as a stock solution in acetone at a concentration of 10 000 ppm. The stock solution was diluted with water to the stated active compound concentration. 1 ml of the respective solution was pipetted to wheat seedlings grown in vermiculite (10 to 12 seedlings per pot). 7 days after the treatment leaf portions of 5 cm length were placed in petri dishes filled with aqueous agar. The leaf portions were then inoculated with a spore suspension of Septoria tritici. The closed Petri dishes were incubated in a climatized test cabinet at 18° C. and 12 h light exposure per day. After 18 days of incubation, the extent of infection was determined visually in %. The concentration is given in g of active compound (g a.i.) per 100 kg of seeds.

Experiment [7] relates to Septoria tritici. Nature of the experiment: Activity against Septoria tritici on wheat (solution pipetted to seedlings in vermiculite). The following applies: inoculated 7 days after treatment, 18 days incubation, control 60. The method, then: as §1, with “Against Septoria tritici” for “Against Puccinia recondita”, “active compound Ia.1 was” for “active compounds were”, “in dimethyl sulfoxide” for “in acetone”, “of Septoria tritici.” for “of Puccinia recondita.”, “After 18” for “After 7”

For `Cn1cc(C(=O)Nc2ccccc2-c2cc(F)c(F)c(F)c2)c(C(F)F)n1` [Ia.90], the Infected leaf area was determined as 0% with Puccinia recondita [1]; 1% in the experiment on Phakopsora pachyrhizi [2] (125 g a.i./100 kg seeds); 2% in the experiment with Phakopsora pachyrhizi [2] (250 g a.i./100 kg seeds); 2% in the experiment on Puccinia recondita [3] (125 g a.i./100 kg); 1% with Puccinia recondita [3] (250 g a.i./100 kg); 0% with Erysiphe graminis (125 g a.i./100 kg). Also, the Infected leaf area is recorded as 0% in the experiment on Erysiphe graminis (250 g a.i./100 kg); 1% with Septoria tritici [4] (25 g a.i./100 kg seeds); 0% with Septoria tritici [4] (50 g a.i./100 kg seeds); 0% with Septoria tritici [4] (100 g a.i./100 kg seeds); 0% in the experiment with Phakopsora pachyrhizi [5]; 7% in the experiment on Septoria tritici [6] (125 g a.i./100 kg). In addition, the Infected leaf area was determined as 3% in the experiment on Septoria tritici [6] (250 g a.i./100 kg), 0% with Septoria tritici [7] (125 g a.i./100 kg) and 0% in the experiment with Septoria tritici [7] (250 g a.i./100 kg).
